Experimental data reported in US10159249B2 (BAYER CROPSCIENCE AKTIENGESELLSCHAFT, priority 2013, dated 2018).

What was measured:
Euphorbia heterophylla = test: Field trial, weed efficacy, post applied; format: in vivo; conditions: Atrazine 1000 g ai/ha; application at 5 leaf stage; assessment 14 days after application
PfHPPDEvo40 = PfHPPDEvo40 (Pseudomonas sp., UniProt P80064, A172V/A339E/A53E/D148E/D45N/E105D/E287Q/E300V/E334P/F143Y/G286D/G335S/H150N/H254A/H63N/I158V/I187A/I249V/K92N/L18F/N24G/N280D/S245T/S257K/S301E/T205S/V65I); test: Brown color assay, HPPD inhibitor tolerance of E. coli HPPD extracts; conditions: extract titrated on 250 uM inhibitor; brown pigment formation
Amaranthus retroflexus = conditions: Glufosinate-ammonium 500 g ai/ha; application at 6 leaf stage; assessment 14 days after application
[1] = test system: Ipomoea aristolochiaefolia; conditions: Glyphosate 960 g ai/ha; application at 6 leaf stage; assessment 14 days after application
Digitaria horizontalis = test: Field trial, weed efficacy, post applied; format: in vivo; conditions: application at 2 tillers, assessment 14 days after application

PfHPPDEvo40, sequence (P80064 other isoform, or with tags, fused parts or gaps with the stated changes): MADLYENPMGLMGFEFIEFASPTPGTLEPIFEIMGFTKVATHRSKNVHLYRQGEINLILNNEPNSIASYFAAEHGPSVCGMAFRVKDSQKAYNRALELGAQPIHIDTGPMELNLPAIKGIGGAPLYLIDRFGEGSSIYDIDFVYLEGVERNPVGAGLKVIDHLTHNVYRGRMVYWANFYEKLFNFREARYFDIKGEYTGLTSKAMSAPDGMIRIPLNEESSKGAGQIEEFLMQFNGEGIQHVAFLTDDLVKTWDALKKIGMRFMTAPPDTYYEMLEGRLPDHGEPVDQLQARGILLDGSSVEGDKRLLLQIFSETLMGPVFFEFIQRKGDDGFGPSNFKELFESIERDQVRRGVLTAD

CCNc1nc(Cl)nc(NC(C)C)n1 [Atrazine, reference compound]
Efficacy (%) Euphorbia heterophylla (Euphorbia heterophylla): 74%

CS(=O)(=O)c1cc(C(F)(F)F)ccc1C(=O)C(C#N)C(=O)C1CC1 (stereo not shown) [DKN, diketonitrile]
tolerance of variant PfHPPDEvo40 to the inhibitor compared to PfHPPD336W (PfHPPDEvo40): improved tolerance

CP(=O)(O)CCC(N)C(=O)O (stereo not shown) [Glufosinate-ammonium, reference compound]
Efficacy (%) Amaranthus retroflexus (Amaranthus retroflexus): 33%

O=C(O)CNCP(=O)(O)O [Glyphosate, reference compound]
Efficacy (%) Ipomoea aristolochiaefolia [1]: 70%

CSc1nnc(C(C)(C)C)c(=O)n1N [Metribuzin]
Efficacy (%) Digitaria horizontalis (Digitaria horizontalis; Metribuzin 240 g ai/ha): 15%
Efficacy (%) Digitaria horizontalis (Digitaria horizontalis; Metribuzin 480 g ai/ha): 35%

CS(=O)(=O)c1ccc(C(=O)C2C(=O)CCCC2=O)c(Cl)c1COCC(F)(F)F [TBT, tembotrione]
tolerance of variant PfHPPDEvo40 to the inhibitor compared to PfHPPD336W (PfHPPDEvo40): improved tolerance
